{
  "source": "patent US12612424B2",
  "about": "“HPK1 inhibitors and uses thereof” (Regor Pharmaceuticals, Inc., priority 2019, dated 2026)",
  "biological_target": "HPK1 (Homo sapiens, UniProt Q92918)",
  "sequence (Q92918 whole entry)": "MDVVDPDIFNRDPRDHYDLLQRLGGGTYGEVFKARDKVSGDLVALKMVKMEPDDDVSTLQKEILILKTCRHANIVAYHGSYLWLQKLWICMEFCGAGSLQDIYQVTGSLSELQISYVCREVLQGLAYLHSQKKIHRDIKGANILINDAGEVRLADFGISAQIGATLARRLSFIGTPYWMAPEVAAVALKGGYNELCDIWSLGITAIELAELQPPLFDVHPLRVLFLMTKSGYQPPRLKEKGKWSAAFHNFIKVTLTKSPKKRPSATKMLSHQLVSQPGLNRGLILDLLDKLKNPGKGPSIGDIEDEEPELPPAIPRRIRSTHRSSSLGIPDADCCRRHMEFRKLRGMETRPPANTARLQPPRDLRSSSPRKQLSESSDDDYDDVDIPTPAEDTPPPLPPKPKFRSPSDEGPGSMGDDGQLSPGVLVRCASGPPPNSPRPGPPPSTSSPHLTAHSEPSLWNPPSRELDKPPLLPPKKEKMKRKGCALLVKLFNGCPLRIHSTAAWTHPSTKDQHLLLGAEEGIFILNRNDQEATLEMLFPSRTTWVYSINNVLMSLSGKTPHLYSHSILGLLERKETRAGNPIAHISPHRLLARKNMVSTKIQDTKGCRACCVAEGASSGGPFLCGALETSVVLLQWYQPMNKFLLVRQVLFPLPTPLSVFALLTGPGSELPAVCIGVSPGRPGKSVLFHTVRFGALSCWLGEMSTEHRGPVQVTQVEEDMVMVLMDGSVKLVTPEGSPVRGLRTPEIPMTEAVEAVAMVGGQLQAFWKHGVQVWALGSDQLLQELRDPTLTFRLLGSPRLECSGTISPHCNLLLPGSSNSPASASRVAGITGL",
  "test": "HPK1 biochemical assay (ADP-GLO Kinase Assay)",
  "procedure,_shortened": "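HPK1 (0.6 ng/μL final) activity was followed with MBP substrate and 10 μM ATP in Tris pH 7.5/MgCl2/BSA/DTT buffer, measured by ADP-Glo luminescence. Compounds were tested as 3-fold dilutions from 10 μM. IC50 came from a three-parameter logistic fit, with inhibition normalised to high/low controls.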",
  "key": {"[1]": {"conditions": "B*: testing performed in a first testing facility, read-out: HPK1 IC50 (nM) Relative, B*"}, "[2]": {"conditions": "N*: testing performed in a second testing facility, read-out: HPK1 IC50 (nM) Relative, N*"}},
  "note": "Read-outs that look alike come from different tables or passages of the source.",
  "data": [
    {"smiles": "COc1cc2c(cc1Nc1ncc(Cl)c(-n3cc(P(C)(C)=O)c4ccccc43)n1)CN(C)CC2", "note": "[Example 1, (1-(5-Chloro-2-((6-methoxy-2-methyl-1,2,3,4-tetrahydroisoquinolin-7-yl)amino)pyrimidin-4-yl)-1H-indol-3-yl)dimethylphosphine oxide]", "values": [
      {"measurement": "IC50", "setting": "[1]", "value": "≤ 100", "unit": "nM"},
      {"measurement": "IC50", "setting": "[2]", "value": "≤ 100", "unit": "nM"}
    ]},
    {"smiles": "COc1nc2c(cc1Nc1ncc(Cl)c(N3CCc4ccccc43)n1)CN(C)CC2", "note": "[Example 19, N-(5-chloro-4-(indolin-1-yl)pyrimidin-2-yl)-2-methoxy-6-methyl-5,6,7,8-tetrahydro-1,6-naphthyridin-3-amine]", "values": [
      {"measurement": "IC50", "setting": "[1]", "value": "≤ 100", "unit": "nM"},
      {"measurement": "IC50", "setting": "[2]", "value": "≤ 100", "unit": "nM"}
    ]},
    {"smiles": "COc1cc2c(cc1Nc1ncc(Cl)c(N3CCc4cc(F)ccc43)n1)CN(C)CC2", "note": "[Example 20, N-(5-chloro-4-(5-fluoroindolin-1-yl)pyrimidin-2-yl)-6-methoxy-2-methyl-1,2,3,4-tetrahydroisoquinolin-7-amine]", "values": [
      {"measurement": "IC50", "setting": "[1]", "value": "≤ 100", "unit": "nM"}
    ]},
    {"smiles": "COc1cc2c(cc1Nc1ncc(Cl)c(N3CCc4ccc(F)cc43)n1)CN(C)CC2", "note": "[Example 21, N-(5-chloro-4-(6-fluoroindolin-1-yl)pyrimidin-2-yl)-6-methoxy-2-methyl-1,2,3,4-tetrahydroisoquinolin-7-amine]", "values": [
      {"measurement": "IC50", "setting": "[1]", "value": "≤ 100", "unit": "nM"}
    ]},
    {"smiles": "COc1cc2c(cc1Nc1ncc(Cl)c(N3CCc4ccccc43)n1)CN(C(C)C)CC2", "note": "[Example 22, N-(5-chloro-4-(indolin-1-yl)pyrimidin-2-yl)-2-isopropyl-6-methoxy-1,2,3,4-tetrahydroisoquinolin-7-amine]", "values": [
      {"measurement": "IC50", "setting": "[1]", "value": "≤ 100", "unit": "nM"}
    ]},
    {"smiles": "COc1cc2c(cc1Nc1ncc(Cl)c(N3CCc4ccccc43)n1)CNCC2", "note": "[Example 23, N-(5-chloro-4-(indolin-1-yl)pyrimidin-2-yl)-6-methoxy-1,2,3,4-tetrahydroisoquinolin-7-amine]", "values": [
      {"measurement": "IC50", "setting": "[1]", "value": "≤ 100", "unit": "nM"}
    ]},
    {"smiles": "COc1cc2c(cc1Nc1ncc(Cl)c(-n3ncc4ccccc43)n1)CN(C)CC2", "note": "[Example 24, N-(5-Chloro-4-(1H-indazol-1-yl)pyrimidin-2-yl)-6-methoxy-2-methyl-1,2,3,4-tetrahydroisoquinolin-7-amine]", "values": [
      {"measurement": "IC50", "setting": "[1]", "value": "≤ 100", "unit": "nM"}
    ]},
    {"smiles": "COc1cc2c(cc1Nc1ncc(Cl)c(N3CC(C)(C)c4ccccc43)n1)CN(C)CC2", "note": "[Example 25, N-(5-Chloro-4-(3,3-dimethylindolin-1-yl)pyrimidin-2-yl)-6-methoxy-2-methyl-1,2,3,4-tetrahydroisoquinolin-7-amine]", "values": [
      {"measurement": "IC50", "setting": "[1]", "value": "≤ 100", "unit": "nM"}
    ]},
    {"smiles": "COc1nc2c(cc1Nc1ncc(Cl)c(N3CCc4ncccc43)n1)CN(C)CC2", "note": "[Example 29, N-(5-Chloro-4-(2,3-dihydro-1H-pyrrolo[3,2-b]pyridin-1-yl)pyrimidin-2-yl)-2-methoxy-6-methyl-5,6,7,8-tetrahydro-1,6-naphthyridin-3-amine]", "values": [
      {"measurement": "IC50", "setting": "[1]", "value": "≤ 100", "unit": "nM"},
      {"measurement": "IC50", "setting": "[2]", "value": "≤ 100", "unit": "nM"}
    ]},
    {"smiles": "COc1cc2c(cc1Nc1ncc(Cl)c(N3CC(C(=O)O)c4ccccc43)n1)CN(C)CC2", "note": "(centres unmarked) [Example 32, 1-(5-Chloro-2-((6-methoxy-2-methyl-1,2,3,4-tetrahydroisoquinolin-7-yl)amino)pyrimidin-4-yl)indoline-3-carboxylic acid]", "values": [
      {"measurement": "IC50", "setting": "[1]", "value": "≤ 100", "unit": "nM"}
    ]},
    {"smiles": "COc1cc2c(cc1Nc1ncc(Cl)c(N3CC(C(N)=O)c4ccccc43)n1)CN(C)CC2", "note": "(centres unmarked) [Example 33, 1-(5-Chloro-2-((6-methoxy-2-methyl-1,2,3,4-tetrahydroisoquinolin-7-yl)amino)pyrimidin-4-yl)indoline-3-carboxamide]", "values": [
      {"measurement": "IC50", "setting": "[1]", "value": "≤ 100", "unit": "nM"}
    ]},
    {"smiles": "COc1cc2c(cc1Nc1ncc(Cl)c(-n3cc(C(N)=O)c4ccccc43)n1)CN(C)CC2", "note": "[Example 34]", "values": [
      {"measurement": "IC50", "setting": "[1]", "value": "≤ 100", "unit": "nM"}
    ]},
    {"smiles": "COc1cc2c(cc1Nc1ncc(Cl)c(-n3cc(C(=O)O)c4ccccc43)n1)CN(C)CC2", "note": "[Example 35]", "values": [
      {"measurement": "IC50", "setting": "[1]", "value": "≤ 100", "unit": "nM"}
    ]},
    {"smiles": "COc1cc2c(cc1Nc1ncc3ccn(-c4ccccc4)c3n1)CN(C)CC2", "note": "[Example 36, 6-methoxy-2-methyl-N-(7-phenyl-7H-pyrrolo[2,3-d]pyrimidin-2-yl)-1,2,3,4-tetrahydroisoquinolin-7-amine]", "values": [
      {"measurement": "IC50", "setting": "[1]", "value": "≤ 100", "unit": "nM"},
      {"measurement": "IC50", "setting": "[2]", "value": "≤ 100", "unit": "nM"}
    ]},
    {"smiles": "COc1cc2c(cc1Nc1ncc3ccn(-c4ccccn4)c3n1)CN(C)CC2", "note": "[Example 37, 6-Methoxy-2-methyl-N-(7-(pyridin-2-yl)-7H-pyrrolo[2,3-d]pyrimidin-2-yl)-1,2,3,4-tetrahydroisoquinolin-7-amine]", "values": [
      {"measurement": "IC50", "setting": "[1]", "value": "≤ 100", "unit": "nM"},
      {"measurement": "IC50", "setting": "[2]", "value": "≤ 100", "unit": "nM"}
    ]}
  ]
}
